Measured values reported in patent US9296684B2, “Allyl 2-cyanoacrylate prepolymer, preparation method thereof, and bioadhesive composition comprising the prepolymer” (UNIVERSITY-INDUSTRY COOPERATION GROUP OF KYUNG HEE …, priority 2011, dated 2016).

Experiment: Change of viscosity according to time for heating 2-cyanoacrylate prepolymer
Type: physicochemical
Conditions: heated at 150° C., FIG. 1
Protocol: 10 ml of an allyl 2-cyanoacrylate was added to a glass test tube and then sealed in a vacuum state. The sealed glass test tube was put in an oil bath of 150° C. to heat it for 5, 10, 20, 30, 40, 50, 60, and 70 minutes. The heated cyanoacrylate per each given period of time was cooled at room temperature and then the change in viscosity was observed.
An ethyl 2-cyanoacrylate was heated; then the heated cyanoacrylate per each given period of time was cooled at room temperature, and then the change in viscosity was observed, by using an identical method as in Example 1 described above, with the exception that ethyl 2-cyanoacrylate was used instead of allyl 2-cyanoacrylate.
The results of investigating the change in viscosity according to time of heating the 2-cyanoacrylate prepolymer in Example 1 and Comparative Example 1 are shown in FIG. 1. Furthermore, the values of viscosity according to time of heating the 2-cyanoacrylate prepolymer in Example 1 are shown in the following Table 1.

## C=C(C#N)C(=O)OCC [ethyl 2-cyanoacrylate]
  change in viscosity with greater heating time: no increase in the viscosity
